Like-named read-outs stand apart in the source and are kept apart here.
Tests used:
Leukemia L1210 = experiment: Activity against Leukemia L1210, intraperitoneal, increase in life span of mice; type: in vivo, female mice (BDF1 family); details: for ED (maximum ILS) / ED30: Mus musculus, L1210, ip, ip once a day for 5 successive days; for ED (maximum ILS): daily dosage giving maximum increase of life span, read-out: O.D. (optimum dosage); for ED30: daily dosage increasing average survival days by 30%, read-out: ILS30; for Survivors after 60 days / Max. ILS % / Therapeutic ratio TR: ip; for Survivors after 60 days: 6-membered group; for Max. ILS %: 60-day observation, versus control; for Therapeutic ratio TR: O.D./ILS30
Outline: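 Female BDF1 mice (20 to 23 g; 6 per group) were implanted intraperitoneally with 1×10^5 L1210 cells, then dosed ip or orally once daily for 5 days starting 24 h later. Survival was followed over 60 days, and ILS% was derived from mean survival days versus untreated controls.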

Ehrlich acites carcinoma = experiment: Growth-inhibiting effect against Ehrlich acites carcinoma; type: in vivo, male mice; details: Mus musculus, Ehrlich, 120 h, 5 days; for response vs control in vivo at 25 mg/kg: 25 mg/kg/day ip; for response vs control in vivo at 100 mg/kg: 100 mg/kg/day ip; for response vs control in vivo at 50 mg/kg: 50 mg/kg/day ip; for response vs control in vivo at 200 mg/kg: 200 mg/kg/day ip
Outline: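 Male mice (groups of 6) implanted intraperitoneally with 1×10^7 Ehrlich ascites cells; compounds in 1% Nikkol HCO-60 given i.p. once daily for 5 days starting 24 hrs post-implantation. Total packed cell volume measured at day 7; T/C% vs untreated group, scored - (100-66), + (65-41), ++ (40-11), +++ (10-0).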

[1] = Acute toxicity (LD50, Behrens-Karber method); type: in vivo, ICR mice; details: mouse, in vivo, ip, mortality during 30 days
Procedure: Test compounds, dissolved or suspended in 0.5% aqueous CMC, were each intraperitoneally administered to ICR mice in a dose of 0.1 ml per 10 g body weight. LD50 (mg/kg) value of each test compound was calculated from the mortality of mice during 30 days by the Behrens-Karber method.

[2] = Diuretic activity, acute sodium loaded mouse screening test; type: in vivo, male mice; details: 50 mg/kg oral in 1% saline; for Cl^- / K^+ / Na^+: urine
Procedure: The diuretic activity of the compounds of this invention was assayed by the diuresis screening test referred to as "acute sodium loaded mouse". This test was carried out by the following method.
The acute sodium loaded mouse screening test was carried out by using a 10-membered group of male mice (each weighing 18 to 24 g). Test compounds were incorporated in 1% saline (NaCl) solution and orally administered in a volume of 10 ml/kg. The mice were placed in metabolic cages. Each treated group consisted of 10-members. Five members were placed in one cage. Tests were conducted by oral administrations of (A) 1% saline (NaCl) solution to the control group and (B) 1% saline (NaCl) solution containing a test compound according to this invention.
The determination was carried out for sodium, potassium, and chlorine in each pooled urine sample. The determination of sodium and potassium was carried out by flame photometer. Chlorine was determined by chloride analysis apparatus. The analytical values of sodium, potassium, and chlorine were shown with an average mg equivalent (m Eq)/Kg/5 hours, and the diuretic activity was shown with an average urine volume (ml)/Kg/5 hours.

SMILES | ED (maximum ILS) (Leukemia L1210) | ED30 (Leukemia L1210) | Survivors after 60 days (Leukemia L1210) | Max. ILS % (Leukemia L1210) | Therapeutic ratio TR (Leukemia L1210) | response vs control in vivo at 25 mg/kg (Ehrlich acites carcinoma; read-out: Activity) | response vs control in vivo at 25 mg/kg (Ehrlich acites carcinoma; read-out: T/C %) | response vs control in vivo at 100 mg/kg (Ehrlich acites carcinoma; read-out: Activity) | response vs control in vivo at 100 mg/kg (Ehrlich acites carcinoma; read-out: T/C %) | LD50 at 720 h [1] | Urine volume [2] | Cl^- [2] | K^+ [2] | Na^+ [2] | response vs control in vivo at 50 mg/kg (Ehrlich acites carcinoma; read-out: Activity) | response vs control in vivo at 50 mg/kg (Ehrlich acites carcinoma; read-out: T/C %) | response vs control in vivo at 200 mg/kg (Ehrlich acites carcinoma; read-out: Activity) | response vs control in vivo at 200 mg/kg (Ehrlich acites carcinoma; read-out: T/C %)
COCCCN(C(=O)N(CCCl)N=O)C1C(OCC(C)C)OC(CO)C(O)C1O [Compound 74, 3-(3-methoxy-n-propyl)-3-(isobutyl α-D-glucopyranose-2-yl)-1-(2-chloroethyl)-1-nitrosourea] | 170 mg/kg | 3.92 mg/kg | 6/6 | > 700% | 43.2 | 0 to 10% | 0% | 0 to 10% | 0% | 560 mg/kg | 9.4 ml/kg/5 hrs. | 0.7 mEq/kg/5 hrs. | 0.8 mEq/kg/5 hrs. | 0.6 mEq/kg/5 hrs. | – | – | – | –
CCCCO[C@@H]1O[C@H](CN(C)C(=O)N(CCCl)N=O)[C@@H](O)[C@H](O)[C@H]1O [Compound 4, 3-methyl-3-(n-butyl β-D-glucopyranose-6-yl)-1-(2-chloroethyl)-1-nitrosourea] | 80 mg/kg | 2.7 mg/kg | 6/6 | > 700% | 29.6 | – | – | – | – | 220 mg/kg | 8.6 ml/kg/5 hrs. | 0.6 mEq/kg/5 hrs. | 0.9 mEq/kg/5 hrs. | 0.5 mEq/kg/5 hrs. | 11 to 40% | 30.2% | 0 to 10% | 2.3%
COCC(C)N(C[C@H]1O[C@H](OCC(C)C)[C@H](O)[C@@H](O)[C@H]1O)C(=O)N(CCCl)N=O (stereo partly drawn) [Compound 110, 3-(1-methyl-2-methoxyethyl)-3-(isobutyl α-D-galactopyranose-6-yl)-1-(2-chloroethyl)-1-nitrosourea] | 200 mg/kg | 3.69 mg/kg | 4/6 | > 435% | 54.2 | 0 to 10% | 0% | 0 to 10% | 0% | 680 mg/kg | 8.8 ml/kg/5 hrs. | 0.6 mEq/kg/5 hrs. | 0.8 mEq/kg/5 hrs. | 0.5 mEq/kg/5 hrs. | – | – | – | –
CCCCO[C@H]1O[C@H](CN(CCCOC)C(=O)N(CCCl)N=O)[C@@H](O)[C@H](O)[C@H]1O [Compound 10] | 150 mg/kg | 3.1 mg/kg | 6/6 | > 700% | 48.4 | 0 to 10% | 0% | 0 to 10% | 0% | 480 mg/kg | 8.7 ml/kg/5 hrs. | 0.6 mEq/kg/5 hrs. | 0.8 mEq/kg/5 hrs. | 0.5 mEq/kg/5 hrs. | – | – | – | –
CCCCO[C@H]1O[C@H](CO)[C@@H](O)[C@H](O)[C@H]1N(CCCOC)C(=O)N(CCCl)N=O [Compound 57, 3-(3-methoxy-n-propyl)-3-(n-butyl α-D-glucopyranose-2-yl)-1-(2-chloroethyl)-1-nitrosourea] | 190 mg/kg | 5.5 mg/kg | 3/6 | > 355% | 34.5 | 0 to 10% | 0% | 0 to 10% | 0% | 570 mg/kg | 9.7 ml/kg/5 hrs. | 0.8 mEq/kg/5 hrs. | 0.9 mEq/kg/5 hrs. | 0.7 mEq/kg/5 hrs. | – | – | – | –
COCCN(C[C@H]1O[C@H](OCC(C)C)[C@H](O)[C@@H](O)[C@@H]1O)C(=O)N(CCCl)N=O [Compound 15, 3-(2-methoxyethyl)-3-(isobutyl α-D-glucopyranose-6-yl)-1-(2-chloroethyl)-1-nitrosourea] | 180 mg/kg | 2.9 mg/kg | 6/6 | > 700% | 62.1 | 0 to 10% | 0% | 0 to 10% | 0% | 570 mg/kg | 9.2 ml/kg/5 hrs. | 0.7 mEq/kg/5 hrs. | 0.9 mEq/kg/5 hrs. | 0.6 mEq/kg/5 hrs. | – | – | – | –
COC(C)CN(C(=O)N(CCCl)N=O)C1C(O)C(CO)OC(OC2CCCCC2)C1O [Compound 86, 3-(2-methoxy-n-propyl)-3-(cyclohexyl α-D-glucopyranose-3-yl)-1-(2-chloroethyl)-1-nitrosourea] | 200 mg/kg | 4.9 mg/kg | 4/6 | > 430% | 40.8 | 0 to 10% | 0% | 0 to 10% | 0% | 695 mg/kg | 10.2 ml/kg/5 hrs. | 0.9 mEq/kg/5 hrs. | 1.0 mEq/kg/5 hrs. | 0.7 mEq/kg/5 hrs. | – | – | – | –
CCOCCCN(C(=O)N(CCCl)N=O)C1C(OC2CCCCC2)OC(CO)C(O)C1O [Compound 65, 3-(3-ethoxy-n-propyl)-3-(cyclohexyl α-D-glucopyranose-2-yl)-1-(2-chloroethyl)-1-nitrosourea] | 200 mg/kg | 4.44 mg/kg | 5/6 | > 620% | 45.0 | 0 to 10% | 0% | 0 to 10% | 0% | 655 mg/kg | 8.8 ml/kg/5 hrs. | 0.7 mEq/kg/5 hrs. | 0.8 mEq/kg/5 hrs. | 0.6 mEq/kg/5 hrs. | – | – | – | –
CCOCCCN(C(=O)N(CCCl)N=O)[C@H]1[C@H](OC(C)CC)OC[C@H](O)[C@@H]1O (stereo partly drawn) [Compound 157, 3-(3-ethoxy-n-propyl)-3-(sec-butyl α-L-arabinopyranose-2-yl)-1-(2-chloroethyl)-1-nitrosourea] | 170 mg/kg | 2.94 mg/kg | 6/6 | > 700% | 57.8 | 0 to 10% | 0% | 0 to 10% | 0% | 550 mg/kg | 10.5 ml/kg/5 hrs. | 1.1 mEq/kg/5 hrs. | 1.0 mEq/kg/5 hrs. | 0.8 mEq/kg/5 hrs. | – | – | – | –
CCOCCCN(C[C@H]1O[C@H](OC(C)CC)[C@H](O)[C@@H](O)[C@@H]1O)C(=O)N(CCCl)N=O (stereo partly drawn) [Compound 19, 3-(3-ethoxy-n-propyl)-3-(sec-butyl α-D-glucopyranose-6-yl)-1-(2-chloroethyl)-1-nitrosourea] | 180 mg/kg | 3.33 mg/kg | 6/6 | > 700% | 54.0 | 0 to 10% | 0% | 0 to 10% | 0% | 560 mg/kg | 9.1 ml/kg/5 hrs. | 0.7 mEq/kg/5 hrs. | 0.8 mEq/kg/5 hrs. | 0.6 mEq/kg/5 hrs. | – | – | – | –
